Activity calls are given as the source filed them. Rule as the data show it, for most assays here: actives have a measured IC50 and inactives only a lower limit.
Key:
Nonstructural protein 1 = Nonstructural protein 1 (Influenza A virus, UniProt Q194T2); type: functional, Influenza A virus (A/California/07/2009(H1N1))
[1] = target: 26S proteasome non-ATPase regulatory subunit 14 (Homo sapiens, UniProt O00487); assay: inhibition of proteasome subunit RPN11 – biochemical, fluorescence polarization, uHTS hits, confirmation (AID 602368); type: functional
[2] = target: 72 kDa type IV collagenase (Homo sapiens, UniProt P08253); assay: Dose Response validation of uHTS RPN11 inhibitor hits using a MMP-2 Fluorescence assay.; type: functional
Prothrombin = Prothrombin (Bos taurus, UniProt P00735); assay: thrombin inhibition, dose response, biochemical, fluorescence polarization, uHTS hits (AID 602369); type: functional
[3] = target: T1, Apoptotic protease-activating factor 1 (Homo sapiens, UniProt O14727); type: functional
T1 sequence (O14727 whole entry): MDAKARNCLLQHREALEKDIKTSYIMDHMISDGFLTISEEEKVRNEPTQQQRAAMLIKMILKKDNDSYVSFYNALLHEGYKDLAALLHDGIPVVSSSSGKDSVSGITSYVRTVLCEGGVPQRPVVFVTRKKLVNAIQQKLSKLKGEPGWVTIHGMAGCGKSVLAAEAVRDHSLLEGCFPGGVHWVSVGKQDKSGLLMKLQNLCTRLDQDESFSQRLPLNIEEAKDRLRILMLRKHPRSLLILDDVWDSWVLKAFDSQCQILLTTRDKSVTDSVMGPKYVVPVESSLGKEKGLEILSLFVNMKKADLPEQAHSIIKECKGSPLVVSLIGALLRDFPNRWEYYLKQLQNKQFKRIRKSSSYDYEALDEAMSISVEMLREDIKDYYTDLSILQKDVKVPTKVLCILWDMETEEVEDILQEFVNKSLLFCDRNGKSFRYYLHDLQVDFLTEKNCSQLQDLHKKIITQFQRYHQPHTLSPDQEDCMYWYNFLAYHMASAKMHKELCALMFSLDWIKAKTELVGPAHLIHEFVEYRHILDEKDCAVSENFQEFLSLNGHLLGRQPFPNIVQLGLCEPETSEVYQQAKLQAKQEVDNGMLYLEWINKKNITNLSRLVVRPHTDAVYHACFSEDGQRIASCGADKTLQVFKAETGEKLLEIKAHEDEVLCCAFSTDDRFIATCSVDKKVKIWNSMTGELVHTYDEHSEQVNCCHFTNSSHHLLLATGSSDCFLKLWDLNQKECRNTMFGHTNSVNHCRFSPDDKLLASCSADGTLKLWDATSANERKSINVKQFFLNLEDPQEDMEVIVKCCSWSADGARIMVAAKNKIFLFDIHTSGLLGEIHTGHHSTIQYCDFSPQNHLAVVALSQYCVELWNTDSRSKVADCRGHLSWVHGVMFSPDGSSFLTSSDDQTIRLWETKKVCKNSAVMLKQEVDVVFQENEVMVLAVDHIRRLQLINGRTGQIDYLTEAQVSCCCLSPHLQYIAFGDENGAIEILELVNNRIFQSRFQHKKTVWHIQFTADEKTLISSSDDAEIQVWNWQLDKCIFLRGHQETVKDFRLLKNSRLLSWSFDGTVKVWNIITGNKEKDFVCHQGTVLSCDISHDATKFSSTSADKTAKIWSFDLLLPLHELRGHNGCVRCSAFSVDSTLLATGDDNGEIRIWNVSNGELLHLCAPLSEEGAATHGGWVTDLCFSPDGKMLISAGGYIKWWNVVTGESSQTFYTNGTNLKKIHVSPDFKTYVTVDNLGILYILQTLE

INS1 = assay: beta cell apoptosis inhibitors, cytokine rescue, dose response, luminescence, retest (AID 449756); type: functional, cell-based; conditions: Rattus norvegicus;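 also: cell death triggered by IL-1 beta plus TNF-alpha plus IFN-gamma mixture; protective hits raise ATP signal compared with cytokine alone wells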
[4] = target: T2, Tyrosyl-DNA phosphodiesterase 2 (Homo sapiens, UniProt O95551); assay: human TDP2 enzyme inhibitors, dose response, biochemical, epi absorbance, IC50 (AID 743297)
T2 sequence (O95551 whole entry): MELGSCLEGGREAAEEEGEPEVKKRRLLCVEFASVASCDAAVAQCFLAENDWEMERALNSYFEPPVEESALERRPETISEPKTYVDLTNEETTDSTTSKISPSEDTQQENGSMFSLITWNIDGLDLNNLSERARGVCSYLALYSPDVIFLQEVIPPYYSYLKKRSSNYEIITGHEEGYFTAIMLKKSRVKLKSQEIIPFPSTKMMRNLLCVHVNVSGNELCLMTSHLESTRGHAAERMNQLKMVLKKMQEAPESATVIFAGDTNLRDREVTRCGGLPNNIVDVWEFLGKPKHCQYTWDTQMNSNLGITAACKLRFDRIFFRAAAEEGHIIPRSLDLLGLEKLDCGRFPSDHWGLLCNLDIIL

[5] = target: Hepatocyte nuclear factor 4-alpha (Homo sapiens, UniProt P41235); type: functional, cell-based;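 also: biochemical luminescence-based dose-response counterscreen measuring inhibition of HNF4 dimerization, run alongside a screen for blockers of ABHD5–perilipin-5 interaction; split luciferase complementation of HNF4 fusion proteins in cell lysate measuring dimerization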
[6] = target: T3, Sentrin-specific protease 8 (Homo sapiens, UniProt Q96LD8); assay: SENP8 protease inhibitors, SAR follow-up, biochemical, luminescence (AID 504501); type: functional
T3 sequence (Q96LD8 whole entry): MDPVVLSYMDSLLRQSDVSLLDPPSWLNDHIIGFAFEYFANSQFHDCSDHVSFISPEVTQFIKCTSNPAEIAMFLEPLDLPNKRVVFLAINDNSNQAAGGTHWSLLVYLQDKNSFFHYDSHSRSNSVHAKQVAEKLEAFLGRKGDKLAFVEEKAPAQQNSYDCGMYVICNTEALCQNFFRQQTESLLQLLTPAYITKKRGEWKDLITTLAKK

Caspase-3 [7] = target: T4, Caspase-3 (Homo sapiens, UniProt P42574); assay: SAR Analysis of small molecule inhibitors of Sentrin-specific proteases (SENPs) using a Caspase-3 Selectivity assay. [Related pubchem assays (depositor defined):AID2540, AID2599, AID434973, AID489001]; type: functional
T4 sequence (P42574 whole entry): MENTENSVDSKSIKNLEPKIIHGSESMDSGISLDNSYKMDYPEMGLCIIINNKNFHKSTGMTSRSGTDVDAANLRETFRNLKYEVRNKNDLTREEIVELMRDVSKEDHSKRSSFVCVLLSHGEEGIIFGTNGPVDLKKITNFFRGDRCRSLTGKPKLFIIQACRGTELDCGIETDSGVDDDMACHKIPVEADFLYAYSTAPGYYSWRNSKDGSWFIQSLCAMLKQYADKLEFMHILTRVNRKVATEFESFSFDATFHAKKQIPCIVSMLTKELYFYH

[8] = target: T5, Sentrin-specific protease 6 (Homo sapiens, UniProt Q9GZR1); assay: SAR Analysis of small molecule inhibitors of Sentrin-specific protease 6 (SENP6) using a Luminescent assay. [Related pubchem assays (depositor defined):AID2582, AID2599]; type: functional
T5 sequence (Q9GZR1 whole entry): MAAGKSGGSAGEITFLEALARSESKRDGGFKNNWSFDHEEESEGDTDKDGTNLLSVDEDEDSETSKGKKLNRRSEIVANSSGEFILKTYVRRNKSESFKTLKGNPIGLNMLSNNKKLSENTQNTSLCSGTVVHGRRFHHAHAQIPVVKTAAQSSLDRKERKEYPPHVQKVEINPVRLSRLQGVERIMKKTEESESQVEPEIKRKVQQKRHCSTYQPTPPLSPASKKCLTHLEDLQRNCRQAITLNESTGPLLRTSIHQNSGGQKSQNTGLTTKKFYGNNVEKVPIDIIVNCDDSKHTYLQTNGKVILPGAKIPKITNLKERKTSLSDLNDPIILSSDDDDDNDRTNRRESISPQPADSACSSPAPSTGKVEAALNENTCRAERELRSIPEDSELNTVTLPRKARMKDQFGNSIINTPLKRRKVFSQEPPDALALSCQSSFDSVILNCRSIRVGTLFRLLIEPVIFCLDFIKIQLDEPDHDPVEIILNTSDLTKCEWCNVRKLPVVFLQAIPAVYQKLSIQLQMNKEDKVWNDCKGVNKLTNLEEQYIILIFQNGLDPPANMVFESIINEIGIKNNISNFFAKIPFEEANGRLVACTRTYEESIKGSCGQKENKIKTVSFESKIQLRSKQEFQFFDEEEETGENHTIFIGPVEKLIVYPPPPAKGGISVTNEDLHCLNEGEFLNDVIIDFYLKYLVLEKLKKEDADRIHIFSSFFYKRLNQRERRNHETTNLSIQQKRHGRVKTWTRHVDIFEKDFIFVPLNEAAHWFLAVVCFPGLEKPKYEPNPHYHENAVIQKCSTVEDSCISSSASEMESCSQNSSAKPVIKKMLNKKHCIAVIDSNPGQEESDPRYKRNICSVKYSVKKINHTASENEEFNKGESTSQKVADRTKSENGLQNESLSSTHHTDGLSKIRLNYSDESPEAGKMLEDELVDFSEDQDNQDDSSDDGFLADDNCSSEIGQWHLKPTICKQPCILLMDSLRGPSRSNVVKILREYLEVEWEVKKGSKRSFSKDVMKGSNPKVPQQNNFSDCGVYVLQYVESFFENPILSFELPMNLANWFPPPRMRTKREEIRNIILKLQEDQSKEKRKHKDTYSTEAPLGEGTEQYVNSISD

[9] = target: T6, Sentrin-specific protease 7 (Homo sapiens, UniProt Q9BQF6); assay: SENP7 protease inhibitors, SAR follow-up, biochemical, luminescence (AID 504497); type: functional
T6 sequence (Q9BQF6 whole entry): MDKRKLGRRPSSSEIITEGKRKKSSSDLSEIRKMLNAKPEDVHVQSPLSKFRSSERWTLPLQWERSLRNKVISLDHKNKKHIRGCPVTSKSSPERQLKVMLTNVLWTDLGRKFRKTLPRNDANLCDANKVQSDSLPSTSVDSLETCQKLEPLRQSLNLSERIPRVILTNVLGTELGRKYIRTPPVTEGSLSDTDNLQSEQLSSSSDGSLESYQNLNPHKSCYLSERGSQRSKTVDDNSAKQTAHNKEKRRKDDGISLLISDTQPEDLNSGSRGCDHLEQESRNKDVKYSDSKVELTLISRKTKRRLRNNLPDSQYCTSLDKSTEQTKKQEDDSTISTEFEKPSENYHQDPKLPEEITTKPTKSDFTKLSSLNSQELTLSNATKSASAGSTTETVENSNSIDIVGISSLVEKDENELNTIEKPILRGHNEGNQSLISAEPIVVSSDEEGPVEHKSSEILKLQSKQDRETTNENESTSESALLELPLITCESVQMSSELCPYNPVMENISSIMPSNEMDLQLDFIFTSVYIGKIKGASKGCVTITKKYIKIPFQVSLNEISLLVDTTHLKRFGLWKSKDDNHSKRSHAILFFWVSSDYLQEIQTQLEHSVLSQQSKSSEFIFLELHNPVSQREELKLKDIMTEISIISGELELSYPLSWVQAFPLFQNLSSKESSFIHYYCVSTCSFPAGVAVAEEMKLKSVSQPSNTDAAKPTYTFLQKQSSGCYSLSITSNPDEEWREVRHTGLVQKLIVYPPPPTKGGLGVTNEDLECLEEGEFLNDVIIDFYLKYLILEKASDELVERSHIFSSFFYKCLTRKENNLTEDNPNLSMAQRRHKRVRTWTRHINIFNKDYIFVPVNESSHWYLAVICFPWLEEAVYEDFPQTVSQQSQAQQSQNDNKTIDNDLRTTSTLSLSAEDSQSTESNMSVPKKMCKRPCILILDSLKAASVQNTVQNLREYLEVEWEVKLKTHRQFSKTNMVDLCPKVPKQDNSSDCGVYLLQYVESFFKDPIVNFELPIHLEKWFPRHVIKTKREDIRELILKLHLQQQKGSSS

[10] = target: Induced myeloid leukemia cell differentiation protein Mcl-1 (Homo sapiens, UniProt Q07820); type: functional
[11] = target: Glucose-6-phosphate 1-dehydrogenase (Homo sapiens, UniProt P11413); assay: human G6PD enzyme inhibitors, dose response, selectivity assay for P. falciparum G6PD inhibitor project, biochemical, fluorescence (AID 504792); type: functional
Vero = Vero cell cytotoxicity, cytotoxicity control for flavivirus capping enzyme inhibitors (AID 588742); type: functional; conditions: Chlorocebus sabaeus
Genome polyprotein = Genome polyprotein (dengue virus type 2, UniProt P29990); assay: Dengue-2 NS5 methyltransferase inhibitors, primary screen, biochemical, confirmation dose response (AID 588689); type: functional
Caspase-3 [12] = target: T4, Caspase-3; type: functional
[13] = target: T6, Sentrin-specific protease 7; type: functional
[14] = target: T5, Sentrin-specific protease 6; type: functional
[15] = target: T3, Sentrin-specific protease 8; type: functional

Chain of 72 kDa type IV collagenase (P08253 whole entry): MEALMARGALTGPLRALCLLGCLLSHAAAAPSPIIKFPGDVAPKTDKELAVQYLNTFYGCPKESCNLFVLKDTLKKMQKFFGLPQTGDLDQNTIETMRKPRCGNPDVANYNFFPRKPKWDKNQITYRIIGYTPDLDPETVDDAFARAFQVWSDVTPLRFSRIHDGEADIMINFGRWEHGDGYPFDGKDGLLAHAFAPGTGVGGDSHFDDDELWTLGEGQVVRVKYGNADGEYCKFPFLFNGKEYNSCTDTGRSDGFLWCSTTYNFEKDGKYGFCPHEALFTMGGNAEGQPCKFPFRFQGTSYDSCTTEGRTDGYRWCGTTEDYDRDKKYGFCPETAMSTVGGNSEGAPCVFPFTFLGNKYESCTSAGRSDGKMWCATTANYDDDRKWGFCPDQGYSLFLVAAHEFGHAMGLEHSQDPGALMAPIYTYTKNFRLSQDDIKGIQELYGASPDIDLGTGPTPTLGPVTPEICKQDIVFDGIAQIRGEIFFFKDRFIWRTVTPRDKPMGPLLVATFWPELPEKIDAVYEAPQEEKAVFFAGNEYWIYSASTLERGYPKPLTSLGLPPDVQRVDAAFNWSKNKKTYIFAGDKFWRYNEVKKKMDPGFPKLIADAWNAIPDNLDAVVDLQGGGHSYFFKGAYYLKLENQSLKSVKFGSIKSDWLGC
Chain of 26S proteasome non-ATPase regulatory subunit 14 (O00487 whole entry): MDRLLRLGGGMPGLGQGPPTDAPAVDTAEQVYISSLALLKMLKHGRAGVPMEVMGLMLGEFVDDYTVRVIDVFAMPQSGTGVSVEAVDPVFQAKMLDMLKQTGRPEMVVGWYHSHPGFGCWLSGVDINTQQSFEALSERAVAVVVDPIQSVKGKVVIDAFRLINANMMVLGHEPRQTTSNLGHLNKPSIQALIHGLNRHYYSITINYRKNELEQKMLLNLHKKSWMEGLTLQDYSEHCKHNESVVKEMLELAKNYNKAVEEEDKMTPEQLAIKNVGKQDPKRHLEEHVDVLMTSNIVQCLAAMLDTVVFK
Chain of Hepatocyte nuclear factor 4-alpha (P41235 whole entry, the tested form may be a part): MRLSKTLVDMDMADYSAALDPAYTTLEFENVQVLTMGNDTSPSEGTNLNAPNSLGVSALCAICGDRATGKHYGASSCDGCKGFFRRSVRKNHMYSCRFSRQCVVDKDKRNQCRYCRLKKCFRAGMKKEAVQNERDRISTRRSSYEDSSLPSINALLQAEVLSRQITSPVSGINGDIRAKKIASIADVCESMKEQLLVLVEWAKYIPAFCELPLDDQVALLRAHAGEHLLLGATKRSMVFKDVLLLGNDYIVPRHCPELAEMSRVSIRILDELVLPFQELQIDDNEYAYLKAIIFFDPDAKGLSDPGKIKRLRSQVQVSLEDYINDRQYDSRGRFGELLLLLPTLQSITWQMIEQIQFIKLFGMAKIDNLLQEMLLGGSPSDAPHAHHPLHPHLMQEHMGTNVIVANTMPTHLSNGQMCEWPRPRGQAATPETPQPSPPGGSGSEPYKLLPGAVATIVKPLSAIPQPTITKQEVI
Chain of Genome polyprotein (P29990 2492-3391 limits assumed): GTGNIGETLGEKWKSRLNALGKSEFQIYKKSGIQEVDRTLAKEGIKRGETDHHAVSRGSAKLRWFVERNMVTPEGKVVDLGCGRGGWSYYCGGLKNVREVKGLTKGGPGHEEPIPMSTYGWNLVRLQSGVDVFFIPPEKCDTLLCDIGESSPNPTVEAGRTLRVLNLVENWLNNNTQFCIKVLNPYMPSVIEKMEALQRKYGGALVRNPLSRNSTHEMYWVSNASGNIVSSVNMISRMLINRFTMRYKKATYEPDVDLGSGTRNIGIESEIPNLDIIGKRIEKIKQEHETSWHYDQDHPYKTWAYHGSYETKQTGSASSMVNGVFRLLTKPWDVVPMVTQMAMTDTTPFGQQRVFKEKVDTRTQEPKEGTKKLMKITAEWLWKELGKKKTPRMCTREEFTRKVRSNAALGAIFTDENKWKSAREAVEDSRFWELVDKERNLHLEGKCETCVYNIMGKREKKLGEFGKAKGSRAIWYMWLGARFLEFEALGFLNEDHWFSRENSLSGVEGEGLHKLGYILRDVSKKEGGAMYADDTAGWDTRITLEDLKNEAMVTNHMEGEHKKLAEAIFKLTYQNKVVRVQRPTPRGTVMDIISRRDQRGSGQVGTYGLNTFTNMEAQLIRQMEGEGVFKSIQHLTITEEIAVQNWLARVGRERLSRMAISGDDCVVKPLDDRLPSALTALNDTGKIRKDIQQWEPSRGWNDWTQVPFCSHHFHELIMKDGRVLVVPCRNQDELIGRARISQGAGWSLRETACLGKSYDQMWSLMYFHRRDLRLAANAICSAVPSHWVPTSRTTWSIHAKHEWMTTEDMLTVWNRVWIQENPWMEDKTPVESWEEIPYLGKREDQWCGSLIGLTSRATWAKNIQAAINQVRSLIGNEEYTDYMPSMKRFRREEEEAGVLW
Chain of Glucose-6-phosphate 1-dehydrogenase (P11413 whole entry): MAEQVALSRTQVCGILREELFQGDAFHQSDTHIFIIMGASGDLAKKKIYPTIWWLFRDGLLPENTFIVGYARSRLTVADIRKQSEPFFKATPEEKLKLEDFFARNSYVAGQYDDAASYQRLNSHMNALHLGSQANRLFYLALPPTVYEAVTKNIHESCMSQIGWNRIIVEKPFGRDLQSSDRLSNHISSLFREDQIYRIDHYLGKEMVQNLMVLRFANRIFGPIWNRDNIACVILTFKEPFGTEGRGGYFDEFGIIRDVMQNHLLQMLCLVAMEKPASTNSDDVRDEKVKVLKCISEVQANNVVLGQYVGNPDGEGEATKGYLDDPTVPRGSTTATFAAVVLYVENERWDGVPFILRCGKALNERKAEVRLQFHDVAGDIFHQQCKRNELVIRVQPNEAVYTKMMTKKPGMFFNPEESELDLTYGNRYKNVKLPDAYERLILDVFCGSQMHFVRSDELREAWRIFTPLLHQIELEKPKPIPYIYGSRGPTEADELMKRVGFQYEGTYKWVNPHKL
Chain of Nonstructural protein 1 (Q194T2 whole entry): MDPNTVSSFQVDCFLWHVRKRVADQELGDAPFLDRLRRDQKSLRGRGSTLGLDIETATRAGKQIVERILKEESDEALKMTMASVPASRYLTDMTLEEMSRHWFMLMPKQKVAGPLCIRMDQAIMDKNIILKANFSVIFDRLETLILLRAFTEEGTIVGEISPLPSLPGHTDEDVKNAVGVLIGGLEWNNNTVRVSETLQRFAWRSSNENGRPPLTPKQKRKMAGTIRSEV
Chain of Induced myeloid leukemia cell differentiation protein Mcl-1 (Q07820 whole entry): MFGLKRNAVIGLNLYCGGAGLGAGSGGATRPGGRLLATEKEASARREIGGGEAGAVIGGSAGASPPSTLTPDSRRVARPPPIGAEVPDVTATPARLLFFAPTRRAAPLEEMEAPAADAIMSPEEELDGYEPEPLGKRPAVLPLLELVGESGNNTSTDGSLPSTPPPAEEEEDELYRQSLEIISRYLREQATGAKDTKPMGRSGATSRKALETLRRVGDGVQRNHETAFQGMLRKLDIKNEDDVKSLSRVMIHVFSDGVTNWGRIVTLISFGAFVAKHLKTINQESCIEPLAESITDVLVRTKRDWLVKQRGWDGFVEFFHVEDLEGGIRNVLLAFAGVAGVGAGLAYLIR

Structure (SMILES): CCCC(=O)NC(c1cccs1)c1cc([N+](=O)[O-])c2cccnc2c1O (stereo not drawn)
- IC50 (Nonstructural protein 1): 13.1 µM (active)
- IC50 [1]: 89.3 µM (active)
- IC50 [2]: 3.26 µM (active)
- IC50 (Prothrombin): 83.6 µM (active)

Structure (SMILES): Nc1ccc2nn(-c3cccc4ccccc34)nc2c1
- IC50 [3]: 50 µM (active)
- AC50 (INS1): 12.6 µM (active)
- IC50 [4]: > 128 µM (inactive)

Structure (SMILES): O=C(NC1CCCCC1)C(C1CC1)n1c(=O)c(-c2ccco2)nc2ccccc21 (stereo not drawn)
- IC50 [5]: 2.17 µM (active)

Structure (SMILES): CC(/C=C1\SC(=S)N(CCC(=O)Nc2cccc(C(=O)O)c2)C1=O)=C\c1ccccc1
- IC50 [1]: 47.4 µM (active)
- IC50 [2]: 64.9 µM (active)
- IC50 (Prothrombin): 73.5 µM (active)

Structure (SMILES): COc1cc(OC)cc(-c2noc(/C=C/c3ccccc3)n2)c1
- IC50 [6]: > 99 µM (inactive)
- IC50 (Caspase-3 [7]): 59 µM (active)
- IC50 [8]: > 99 µM (inactive)
- IC50 [9]: 21.4 µM (active)

Structure (SMILES): COc1cc(OC)cc(C(=O)Nc2ccc3ccccc3c2)c1
- IC50 [6]: 7.8 µM (active)
- IC50 (Caspase-3 [7]): 8.7 µM (active)
- IC50 [8]: 7 µM (active)
- IC50 [9]: 2.86 µM (active)

Structure (SMILES): Cc1cc(C)c(S(=O)(=O)/N=C2/C=C(SCC(=O)O)C(=O)c3ccccc32)cc1C
- IC50 [10]: 7.55 µM (active)
- IC50 [11]: 30.2 µM (inactive)
- CC50 (Vero): 37.5 µM (active)
- IC50 [3]: 12.6 µM (active)
- IC50 (Genome polyprotein): > 100 µM (active)

Structure (SMILES): COc1ccccc1N1CCN(C(c2cccs2)C(C)NS(=O)(=O)c2ccccc2)CC1 (stereo not drawn)
- IC50 [3]: 10 µM (active)

Structure (SMILES): O=C(Nc1nc2ccccc2s1)c1ccc(Cl)s1
- IC50 (Caspase-3 [12]): 10.5 µM (active)
- IC50 [13]: 2.16 µM (active)
- IC50 [14]: > 100 µM (inactive)
- IC50 [15]: 1.56 µM (active)
- IC50 [6]: 2.55 µM (active)
- IC50 (Caspase-3 [7]): 3.28 µM (active)
- IC50 [8]: 2.83 µM (active)
- IC50 [9]: 1.35 µM (active)
